Experimental data reported in patent publication US9475766B2, “Substituted aromatic sulfur compounds and methods of their use” (Cephalon, Inc., priority 2011, dated 2016).

Experiments:
Type in all cases: cell-based
[1] = system: SU86 pancreatic cancer cell line (Su.86.86); assay: Cell survival and adhesion assay (luciferase), SU86; details: 5 hours, SU86 cells overlayed onto human mesothelial cell monolayers, read-out: relative reduction in Luciferase activity, SU86 10 μM
Method: (§1) SU86 is a pancreatic cancer cell line. HT29 is a colon cancer cell line. BxPC3 is a pancreatic cell line. A2780 is an ovarian cancer cell line.
(§2) BxPc-3 and Su.86.86 pancreatic and HT-29 colon and A2780 ovarian cancer cell lines were purchased from ATCC and cultured in DMEM supplemented with 10% fetal bovine serum, glutamine, penicillin, and streptomycin. All cells were cultured at 37° C. in a humidified incubator in a 5% CO2 atmosphere. The cancer cell lines were transduced with a retrovirus containing pLuc-puro, a constitutive luciferase reporter and selected in […] media. Transient transfection of a full-length human c-FLIP construct in the vector pcDNA3 was performed as previously described. Scaife et al. Cancer Research 2002, 62: 6870-78.
(§3) Pancreatic cancer cell cultures (BxPc-3 and Su.86.86) and colon cancer (HT-29) and ovarian cancer (A2780) cells that were stably transfected with a firefly luciferase construct were transiently suspended with trypsin-PBS. 10^5 cells were overlayed onto confluent monolayers of human mesothelial cells in 96-well plates while simultaneously adding various concentrations of compounds of the invention or DMSO for 5 hours. The non-adherent cells were carefully washed away from the wells twice with 100 μl/well of blocking buffer (1% BSA in PBS) and twice again with ice-cold PBS. Adherent and surviving cells were detected by luciferase activity in a luminometer as follows. The cells were lysed in 0.1% TritonX-100, 25 mM Gly-Gly (7.8), MgSO4, 4 mM EGTA, 1 mM DTT. The total protein concentration was normalized with lysis buffer. 50 μl of cell lysate was added per well of a 96-well microtiter plate. 50 μl of luciferin substrate (Promega) was added per well and then the light output determined in a luminometer.

[2] = system: HT29 colon cancer cell line; assay: Cell survival and adhesion assay (luciferase), HT29; details: HT-29, 5 hours, HT29 cells overlayed onto human mesothelial cell monolayers, read-out: relative reduction in Luciferase activity, HT29 10 μM
Method: as §1, §2, §3

[3] = system: BxPC3 pancreatic cell line; assay: Cell survival and adhesion assay (luciferase), BxPC3; details: BXPC-3, 5 hours, BxPC3 cells overlayed onto human mesothelial cell monolayers, read-out: relative reduction in Luciferase activity, BxPC3 10 μM
Method: as §1, §2, §3

[4] = system: A2780 ovarian cancer cell line; assay: Cell survival and adhesion assay (luciferase), A2780; details: 5 hours, A2780 cells overlayed onto human mesothelial cell monolayers, read-out: relative reduction in Luciferase activity, A2780 10 μM
Method: as §1, §2, §3

Structure (SMILES) | inhibition at 10 µM [1] | inhibition at 10 µM [2] | inhibition at 10 µM [3] | inhibition at 10 µM [4]
CC(C)(C(=O)Nc1cccc(OCC(=O)O)c1)c1ccc(S(=O)(=O)/C=C/C#N)cc1 [Example 43, (3-{2-[4-((E)-2-Cyano-ethenesulfonyl)-phenyl]-2-methyl-propionylamino}-phenoxy)-acetic acid] | < 10% | < 10% | < 10% | 
CC(C)(C)OC(=O)NCCNC(=O)C(C)(C)c1ccc(S(=O)(=O)/C=C/C#N)cc1 [Example 32, (2-{2-[4-((E)-2-Cyano-ethenesulfonyl)-phenyl]-2-methyl-propionylamino}-ethyl)-carbamic acid tert-butyl ester] | 10 to 50% | 50 to 85% | 10 to 50% | 
CC(C)(C)c1ccc(S/C=C/C#N)cc1 [Example 60, (E)-3-(4-tert-Butyl-phenylsulfanyl)-acrylonitrile] | < 10% | < 10% | < 10% | < 10%
Cc1ccc2oc(C(C)(C)c3cccc(S(=O)(=O)/C=C/C#N)c3)nc2c1 [Example 66, (E)-3-{3-[1-Methyl-1-(5-methyl-benzoxazol-2-yl)-ethyl]-benzenesulfonyl}-acrylonitrile; compound with trifluoro-acetic acid] | 50 to 85% | > 85% | 50 to 85% | > 85%
CC(C)(C(=O)O)c1cccc(S(=O)(=O)/C=C/C#N)c1 [Example 2, 2-[3-((E)-2-Cyano-ethenesulfonyl)-phenyl]-2-methyl-propionic acid] | < 10% | 10 to 50% | 10 to 50% | < 10%
CC(C)(C(=O)NCc1ccc(S(N)(=O)=O)cc1)c1ccc(S(=O)(=O)/C=C/C#N)cc1 [Example 26, 2-[4-((E)-2-Cyano-ethenesulfonyl)-phenyl]-N-(4-sulfamoyl-benzyl)-isobutyramide] | < 10% | < 10% | < 10% | 
CC(C)(C)c1cc(S(=O)(=O)/C=C/C#N)ccc1OCC(=O)NC1CCCCC1 [Example 63, 2-[2-tert-Butyl-4-((E)-2-cyano-ethenesulfonyl)-phenoxy]-N-cyclohexyl-acetamide] | 50 to 85% | > 85% | > 85% | > 85%
CC(C)(C(=O)Nc1ccccc1)c1ccc(S(=O)(=O)/C=C/C#N)cc1 [Example 5, 2-[4-((E)-2-Cyano-ethenesulfonyl)-phenyl]-N-phenyl-isobutyramide] | 10 to 50% | < 10% | 50 to 85% | 50 to 85%
CC(C)(C(=O)NCc1ccccc1)c1ccc(S(=O)(=O)/C=C/C#N)cc1 [Example 6, N-Benzyl-2-[4-((E)-2-cyano-ethenesulfonyl)-phenyl]-isobutyramide] | 50 to 85% | < 10% | 50 to 85% | > 85%
CC(C)(C(=O)NCc1ccccc1F)c1ccc(S(=O)(=O)/C=C/C#N)cc1 [Example 40, 2-[4-((E)-2-Cyano-ethenesulfonyl)-phenyl]-N-(2-fluoro-benzyl)-isobutyramide] | 50 to 85% | > 85% | > 85% | 
N#C/C=C/S(=O)(=O)c1ccc(C2(C(=O)O)CC2)cc1 [Example 62, 1-[4-((E)-2-Cyano-ethenesulfonyl)-phenyl]-cyclopropanecarboxylic acid] | 10 to 50% | < 10% | < 10% | 10 to 50%
CC(C)(C(=O)N[C@H]1CCCCNC1=O)c1ccc(S(=O)(=O)/C=C/C#N)cc1 [Example 30, 2-[4-((E)-2-Cyano-ethenesulfonyl)-phenyl]-N—((S)-2-oxo-azepan-3-yl)-isobutyramide] | < 10% | 50 to 85% | < 10% | 
Cc1ccc2oc(C(C)(C)c3ccc(S(=O)(=O)/C=C/C#N)cc3)nc2c1 [Example 50, (E)-3-{4-[1-Methyl-1-(5-methyl-benzoxazol-2-yl)-ethyl]-benzenesulfonyl}-acrylonitrile] | 50 to 85% | > 85% | > 85% | 
CC(C)(C(=O)N[C@H](CO)c1ccccc1)c1ccc(S(=O)(=O)/C=C/C#N)cc1 [Example 29, 2-[4-((E)-2-Cyano-ethenesulfonyl)-phenyl]-N—((S)-2-hydroxy-1-phenyl-ethyl)-isobutyramide] | < 10% | 50 to 85% | < 10% | 
CN(Cc1ccc(F)cc1)C(=O)C(C)(C)c1ccc(S(=O)(=O)/C=C/C#N)cc1 [Example 41, 2-[4-((E)-2-Cyano-ethenesulfonyl)-phenyl]-N-(4-fluoro-benzyl)-N-methyl-isobutyramide] | 50 to 85% | > 85% | > 85% | 
Cc1cnc(C(C)(C)c2ccc(S(=O)(=O)/C=C/C#N)cc2)o1 [Example 51, (E)-3-{4-[1-Methyl-1-(5-methyl-oxazol-2-yl)-ethyl]-benzenesulfonyl}-acrylonitrile] | 50 to 85% | > 85% | > 85% | 
COc1ccccc1CN(C)C(=O)C(C)(C)c1ccc(S(=O)(=O)/C=C/C#N)cc1 [Example 46, 2-[4-((E)-2-Cyano-ethenesulfonyl)-phenyl]-N-(2-methoxy-benzyl)-N-methyl-isobutyramide] | 50 to 85% | > 85% | > 85% | 
CC(C)(C(=O)N1CCCCC1)c1ccc(S(=O)(=O)/C=C/C#N)cc1 [Example 28, (E)-3-[4-(1,1-Dimethyl-2-oxo-2-piperidin-1-yl-ethyl)-benzenesulfonyl]-acrylonitrile] | 10 to 50% | > 85% | 50 to 85% | 
CC(C)(C(=O)NCc1ccc(S(C)(=O)=O)cc1)c1ccc(S(=O)(=O)/C=C/C#N)cc1 [Example 27, 2-[4-((E)-2-Cyano-ethenesulfonyl)-phenyl]-N-(4-methanesulfonyl-benzyl)-isobutyramide] | < 10% | 10 to 50% | < 10% | 
COc1ccccc1CNC(=O)C(C)(C)c1ccc(S(=O)(=O)/C=C/C#N)cc1 [Example 45, 2-[4-((E)-2-Cyano-ethenesulfonyl)-phenyl]-N-(2-methoxy-benzyl)-isobutyramide] | 50 to 85% | > 85% | > 85% | 
CC(C)(C(=O)NNC(=O)C1CCCCC1)c1ccc(S(=O)(=O)/C=C/C#N)cc1 [Example 52, Cyclohexanecarboxylic acid N′-{2-[4-((E)-2-cyano-ethenesulfonyl)-phenyl]-2-methyl-propionyl}-hydrazide] | 10 to 50% | 50 to 85% | < 10% | 
COCCOCc1ccc(NC(=O)C(C)(C)c2ccc(S(=O)(=O)/C=C/C#N)cc2)cc1 [Example 31, 2-[4-((E)-2-Cyano-ethenesulfonyl)-phenyl]-N-[4-(2-methoxy-ethoxymethyl)-phenyl]-isobutyramide] | 10 to 50% | 50 to 85% | 50 to 85% | 
CC(C)(C)OC(=O)NCCCCCCNC(=O)C(C)(C)c1ccc(S(=O)(=O)/C=C/C#N)cc1 [Example 33, (6-{2-[4-((E)-2-Cyano-ethenesulfonyl)-phenyl]-2-methyl-propionylamino}-hexyl)-carbamic acid tert-butyl ester] | < 10% | 50 to 85% | 10 to 50% | 
COCCOc1cccc(NC(=O)C(C)(C)c2ccc(S(=O)(=O)/C=C/C#N)cc2)c1 [Example 42, 2-[4-((E)-2-Cyano-ethenesulfonyl)-phenyl]-N-[3-(2-methoxy-ethoxy)-phenyl]-isobutyramide] | 50 to 85% | > 85% | 50 to 85% | 
COc1cccc(CNC(=O)C(C)(C)c2ccc(S(=O)(=O)/C=C/C#N)cc2)c1 [Example 44, 2-[4-((E)-2-Cyano-ethenesulfonyl)-phenyl]-N-(3-methoxy-benzyl)-isobutyramide] | 50 to 85% | > 85% | > 85% | 
CC(C)(c1ccc(S(=O)(=O)/C=C/C#N)cc1)c1nnc(C2CCCCC2)o1 [Example 53, (E)-3-{4-[1-(5-Cyclohexyl-[1,3,4]oxadiazol-2-yl)-1-methyl-ethyl]-benzenesulfonyl}-acrylonitrile] | 50 to 85% | > 85% | > 85% | 
